Results: US8895753B2, “S1P receptor modulating agent” (Meiji Seika Pharma Co., Ltd., priority 2011, dated 2014)
pEC50: −log10 of the molar value.

Columns and labels:
Human S1P1 receptor [1] = molecular target: T1, Human S1P1 receptor (Homo sapiens, UniProt P21453); assay: Agonist activity at an S1P1 receptor ([35S]-GTPγS exchange reaction, membrane fractions); assay type: biochemical; settings: read-out: EC50, agonist activity at S1P1 receptor (GTP exchange reaction)
Procedure: (§1) By using membrane fractions prepared from a human S1P1 receptor expressing cells (Multispan Ltd.), the agonist activity of each test compound was measured by [^35S]-GTPγS exchange reaction in accordance with a standard procedure (Methods in Molecular Biology, Vol. 552, p 143-151 (2009)), and EC50 (nM) of each test compound was computed.

Human S1P3 receptor = Human S1P3 receptor (Homo sapiens, UniProt Q99500); assay: Agonist activity at an S1P3 receptor ([35S]-GTPγS exchange reaction at 1000 nM); assay type: biochemical; settings: read-out: percent of the maximal agonist activity at S1P3 receptor
Sequence of Human S1P3 receptor (Q99500 whole entry): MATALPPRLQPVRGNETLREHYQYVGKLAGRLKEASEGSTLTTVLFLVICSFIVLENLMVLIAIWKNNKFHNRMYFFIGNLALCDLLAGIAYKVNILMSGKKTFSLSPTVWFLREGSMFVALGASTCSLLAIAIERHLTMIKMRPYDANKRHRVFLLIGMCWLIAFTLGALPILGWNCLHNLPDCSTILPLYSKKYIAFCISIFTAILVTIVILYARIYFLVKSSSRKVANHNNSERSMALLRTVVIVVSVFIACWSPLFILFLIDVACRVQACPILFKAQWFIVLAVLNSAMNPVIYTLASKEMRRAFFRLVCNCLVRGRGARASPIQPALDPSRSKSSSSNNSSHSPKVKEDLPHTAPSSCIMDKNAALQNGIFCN
Procedure: as §1
By using membrane fractions prepared from Human S1P3 receptor expressing cells (Multispan Inc.), the agonist activity of the compound in the present invention was measured by a [^35S]-GTPγS exchange reaction at 1000 nM by the similar method of the Experimental Example 2.

Human S1P4 receptor = molecular target: T2, Human S1P4 receptor (Homo sapiens, UniProt O95977); assay: Agonist activity at an S1P4 receptor (calcium influx); assay type: cell-based; settings: at 1000 nM; read-out: activity at S1P4 receptor (elevation of intracellular calcium)
T2 sequence (O95977 1-384): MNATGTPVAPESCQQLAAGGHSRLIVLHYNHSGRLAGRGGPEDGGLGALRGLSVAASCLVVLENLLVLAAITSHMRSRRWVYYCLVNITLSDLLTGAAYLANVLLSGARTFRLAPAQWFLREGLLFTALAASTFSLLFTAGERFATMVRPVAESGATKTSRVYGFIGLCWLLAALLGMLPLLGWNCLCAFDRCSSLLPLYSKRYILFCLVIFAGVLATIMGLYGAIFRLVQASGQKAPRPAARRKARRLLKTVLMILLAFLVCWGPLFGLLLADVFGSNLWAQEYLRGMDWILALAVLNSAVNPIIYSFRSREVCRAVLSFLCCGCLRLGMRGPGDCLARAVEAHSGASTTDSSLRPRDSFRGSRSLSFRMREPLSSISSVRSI
Procedure: By using Human S1P4 receptor expressing cells (Multispan Inc. CG1052-1), the elevation of intracellular calcium concentration via agonist activity by the addition of 1000 nM was measured by Fret method (fluorescence resonance energy transfer).

Human S1P1 receptor [2] = molecular target: T1, Human S1P1 receptor; assay: Agonist activity at an S1P1 receptor (reporter assay, EDG1-bla/U2OS cells); assay type: cell-based; set-up: host or cells: U2OS (EDG1-bla/U2OS); settings: S1P maximum response = 100%
Procedure: Human S1P1 receptor gene recombinant EDG1-bla/U2OS cells (Life Technologies Japan Ltd.) were plated in a 96-well half-sized clear bottom black plate at a density of 10000 cells/32 μL/well, and then the plate was incubated at 37° C. in a 5% CO2 incubator for 48 hours. A culture medium containing each test compound prepared as a 5× concentrate was added at 8 μL/well, and the plate was incubated at 37° C. in a 5% CO2 incubator for 5 hours. The substrate (LiveBLAzer™-FRET B/G substrate (CCF4-AM), Life Technologies Japan Ltd.) prepared as a 6× concentrate was added at 8 μL into each well, and the plate was incubated at room temperature for 2 hours in the dark. The fluorescence intensity of each well was detected using a bottom-reading fluorescence microplate reader (EnVision: ParkinElmer) at one excitation wavelength and 2 wavelengths for fluorescence emission (Ex409 nm, Em460 nm, Em530 nm). The intensity ratio of fluorescence at 460 nm/530 nm was calculated for each well. The maximum response ratio confirmed from the dose response of SIP was expressed as 100%. The concentration of a test compound required to stimulate 50% of its maximal activation was computed as EC50 (nM).

T1 sequence (P21453 whole entry): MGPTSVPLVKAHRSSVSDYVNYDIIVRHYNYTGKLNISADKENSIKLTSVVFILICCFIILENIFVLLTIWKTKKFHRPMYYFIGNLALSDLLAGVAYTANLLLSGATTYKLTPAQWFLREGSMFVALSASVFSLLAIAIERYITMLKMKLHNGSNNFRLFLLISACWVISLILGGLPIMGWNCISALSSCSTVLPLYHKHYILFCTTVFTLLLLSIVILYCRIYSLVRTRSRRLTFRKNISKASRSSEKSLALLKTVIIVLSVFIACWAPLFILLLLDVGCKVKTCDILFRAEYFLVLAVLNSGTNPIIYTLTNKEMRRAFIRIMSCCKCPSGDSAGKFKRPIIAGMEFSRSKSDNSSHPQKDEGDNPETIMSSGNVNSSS

pEC50 (Human S1P1 receptor [1]) | Emax at 1 µM (Human S1P3 receptor) [%] | activation at 1 µM (Human S1P4 receptor) [%] | pEC50 (Human S1P1 receptor [2]) | SMILES
≥ 7.30 | < 20 | < 20 | ≥ 7.00 | CCOc1ccc(-c2cnc(-c3ccc(CN4CC(C(=O)O)C4)cc3)s2)cc1 [Example 31, 1-(4-(5-(4-ethoxyphenyl)thiazol-2-yl)benzyl)azetidine-3-carboxylic acid]
≥ 8.00 | < 20 | < 20 | ≥ 9.00 | O=C(O)C1CN(Cc2ccc(-c3ncc(-c4ccc(C5CCCC5)cc4)s3)cc2)C1 [Example 34, 1-(4-(5-(4-cyclopentylphenyl)thiazol-2-yl)benzyl)azetidine-3-carboxylic acid]
≥ 7.00 | < 20 | < 20 | ≥ 8.00 | O=C(O)C1CN(Cc2ccc(-c3ncc(-c4ccc(C5CCCCC5)cc4)s3)cc2)C1 [Example 36, 1-(4-(5-(4-cyclohexylphenyl)thiazol-2-yl)benzyl)azetidine-3-carboxylic acid]
≥ 8.00 | 20 to 50 | < 20 | ≥ 9.00 | Cc1cc(CN2CC(C(=O)O)C2)ccc1-c1ncc(-c2ccc(OC(C)C)c(Cl)c2)s1 [Example 37, 1-(4-(5-(3-chloro-4-isopropoxyphenyl)thiazol-2-yl)-3-methylbenzyl)azetidine-3-carboxylic acid]
≥ 7.30 | < 20 | < 20 | ≥ 7.00 | CCCOc1ccc(-c2cnc(-c3ccc(CN4CC(C(=O)O)C4)cc3)s2)cc1 [Example 38]
≥ 7.30 | < 20 | < 20 | ≥ 8.00 | CCCc1ccc(-c2cnc(-c3ccc(CN4CC(C(=O)O)C4)cc3)s2)cc1 [Example 45, 1-(4-(5-(4-propylphenyl)thiazol-2-yl)benzyl)azetidine-3-carboxylic acid]
≥ 7.30 | < 20 | < 20 | ≥ 8.00 | CC(C)c1ccc(-c2cnc(-c3ccc(CN4CC(C(=O)O)C4)cc3)s2)cc1 [Example 46, 1-(4-(5-(4-isopropylphenyl)thiazol-2-yl)benzyl)azetidine-3-carboxylic acid]
≥ 7.30 | < 20 | < 20 | ≥ 8.00 | CCCCc1ccc(-c2cnc(-c3ccc(CN4CC(C(=O)O)C4)cc3)s2)cc1 [Example 47, 1-(4-(5-(4-butylphenyl)thiazol-2-yl)benzyl)azetidine-3-carboxylic acid]
≥ 7.30 | 20 to 50 | < 20 | ≥ 9.00 | CC(C)Cc1ccc(-c2cnc(-c3ccc(CN4CC(C(=O)O)C4)cc3)s2)cc1 [Example 48, 1-(4-(5-(4-isobutylphenyl)thiazol-2-yl)benzyl)azetidine-3-carboxylic acid]
≥ 7.30 | 20 to 50 | < 20 | ≥ 9.00 | CC(C)Oc1ccc(-c2cnc(-c3ccc(CN4CC(C(=O)O)C4)cc3)s2)cc1C#N [Example 50, 1-(4-(5-(3-cyano-4-isopropoxyphenyl)thiazol-2-yl)benzyl)azetidine-3-carboxylic acid]
≥ 7.30 | 20 to 50 | < 20 | ≥ 9.00 | Cc1cc(-c2cnc(-c3ccc(CN4CC(C(=O)O)C4)cc3)s2)ccc1OC(C)C [Example 52, 1-(4-(5-(4-isopropoxy-3-methylphenyl)thiazol-2-yl)benzyl)azetidine-3-carboxylic acid]
≥ 6.30 | 20 to 50 | < 20 | ≥ 8.00 | CC(C)Oc1ccc(-c2cnc(-c3ccc(CN4CC(C(=O)O)C4)cc3)s2)cc1F [Example 53, 1-(4-(5-(3-fluoro-4-isopropoxyphenyl)thiazol-2-yl)benzyl)azetidine-3-carboxylic acid]
≥ 6.30 | < 20 | < 20 | ≥ 8.00 | CC(C)Oc1ccc(-c2cnc(-c3ccc(CN4CC(C(=O)O)C4)cc3)s2)c(C(F)(F)F)c1 [Example 55, 1-(4-(5-(4-isopropoxy-2-(trifluoromethyl)phenyl)thiazol-2-yl)benzyl)azetidine-3-carboxylic acid]
≥ 7.00 | 20 to 50 | < 20 | ≥ 9.00 | CC(C)Oc1ccc(-c2cnc(-c3ccc(CN4CC(C(=O)O)C4)cc3)s2)cc1C(F)(F)F [Example 56, 1-(4-(5-(4-isopropoxy-3-(trifluoromethyl)phenyl)thiazol-2-yl)benzyl)azetidine-3-carboxylic acid]
≥ 7.30 | < 20 | < 20 | ≥ 9.00 | CC(C)Oc1ccc(-c2cnc(-c3ccc(CN4CC(C(=O)O)C4)c(F)c3)s2)cc1Cl [Example 57, 1-(4-(5-(3-chloro-4-isopropoxyphenyl)thiazol-2-yl)-2-fluorobenzyl)azetidine-3-carboxylic acid]
≥ 7.30 | < 20 | < 20 | ≥ 9.00 | CC(C)Oc1ccc(-c2cnc(-c3ccc(CN4CC(C(=O)O)C4)c(C(F)(F)F)c3)s2)cc1Cl [Example 58, 1-(4-(5-(3-chloro-4-isopropoxyphenyl)thiazol-2-yl)-2-(trifluoromethyl)benzyl)azetidine-3-carboxylic acid]
≥ 7.30 | < 20 | < 20 | ≥ 9.00 | CC(C)Cc1ccc(-c2cnc(-c3ccc(CN4CC(C(=O)O)C4)cc3F)s2)cc1C#N [Example 59, 1-(4-(5-(3-cyano-4-isobutylphenyl)thiazol-2-yl)-3-fluorobenzyl)azetidine-3-carboxylic acid]
≥ 8.00 | 20 to 50 | < 20 | ≥ 9.00 | CC(C)Oc1ccc(-c2cnc(-c3ccc(CN4CC(C(=O)O)C4)cc3Cl)s2)cc1Cl [Example 60, 1-(3-chloro-4-(5-(3-chloro-4-isopropoxyphenyl)thiazol-2-yl)benzyl)azetidine-3-carboxylic acid]
≥ 8.00 | < 20 | < 20 | ≥ 7.00 | COc1cc(CN2CC(C(=O)O)C2)ccc1-c1ncc(-c2ccc(OC(C)C)c(Cl)c2)s1 [Example 61, 1-(4-(5-(3-chloro-4-isopropoxyphenyl)thiazol-2-yl)-3-methoxybenzyl)azetidine-3-carboxylic acid]
≥ 8.00 | 20 to 50 | < 20 | ≥ 9.00 | Cc1cc(-c2ncc(-c3ccc(OC(C)C)c(Cl)c3)s2)ccc1CN1CC(C(=O)O)C1 [Example 62, 1-(4-(5-(3-chloro-4-isopropoxyphenyl)thiazol-2-yl)-2-methylbenzyl)azetidine-3-carboxylic acid]
≥ 7.30 | < 20 | < 20 | ≥ 9.00 | CC(C)Oc1ccc(-c2cnc(-c3ccc(CN4CC(C(=O)O)C4)c(Cl)c3)s2)cc1Cl [Example 63, 1-(2-chloro-4-(5-(3-chloro-4-isopropoxyphenyl)thiazol-2-yl)benzyl)azetidine-3-carboxylic acid]

SMILES | pEC50 (Human S1P1 receptor [1]) | Emax at 1 µM (Human S1P3 receptor) [%] | activation at 1 µM (Human S1P4 receptor) [%] | pEC50 (Human S1P1 receptor [2])
O=C(O)C1CN(Cc2ccc(-c3ncc(-c4ccc(OC5CCC5)cc4)s3)cc2)C1 [Example 51, 1-(4-(5-(4-cyclobutoxyphenyl)thiazol-2-yl)benzyl)azetidine-3-carboxylic acid] | ≥ 6.30 | 20 to 50 | < 20 | ≥ 7.00
